Test results: patent publication EP1282414B1, “FELBAMATE DERIVED COMPOUNDS FOR TREATING NEUROPATHIC PAIN” (University of Virginia Patent Foundation, priority 2000, dated 2001)

How the values were obtained:
[1] = system: MES-induced seizure spread; experiment: Maximal Electroshock Seizure (MES) test, mice i.p.; format: in vivo; details: for MES, number of animals protected / total number of animals tested: mice i.p.
Source text: (§1) The fluoro derivatives synthesized were submitted to the National Institute of Neurological Disorders and Stroke (NINDS) for evaluation in a standard panel of assays. Two convulsant tests (MES and scMET), and a toxicity screen (rotorod in mice, positional sense and gait in rats) were employed for evaluating the compounds activity as neuroprotecting agents. These testing procedures are described in detail in Molecular and Cellular Targets for Anti-epileptic Drugs, eds. G. Avanzini, G. Regesta, P. Tanganelli, M. Avoli, 1997, John Libbey & Company Ltd, pp 191-198. The felbamate derivatives were evaluated for anticonvulsant activity following intraperitoneal (i.p.) administration in mice and oral administration in rats.
The MES test is a model for generalized tonic-clonic seizures and is used to identify compounds which prevent seizure spread. The behavioral and electrographic seizures generated in this model are consistent with the human disorder. In the MES test, an electrical stimulus of 0.2 s in duration (50 mA in mice and 150 mA in rat at 60Hz) was delivered via corneal electrodes primed with an electrolyte solution containing an anesthetic agent. […] Rats were tested at time intervals between 0.25 and 4 hours following a standard oral dose of 30 mg/kg. Abolition of the hindlimb tonic extensor component indicates the test compound's ability to inhibit MES-induced seizure spread.
(§2) For the MES and scMET tests the data is presented in the form of the number of animals protected by the administered compound / total number of animals tested. […] Qualitative data was obtained for fluoro felbamate 12 (Tables 1 and 2A), fluoro monocarbamate felbamate 13 (Tables 1 and 2B), and fluorodioxo 16 (Tables 1 and 2C) and for cyclic felbamate 21 (Tables 5 and 6B) and cyclic monocarbamate 22 (Tables 5 and 6A). More extensive quantitative data was also obtained for fluoro felbamate 12 in mice (Table 3) and rats (Table 4).

pentylenetetrazol [2] = experiment: Subcutaneous Metrazol seizure test (scMET), mice i.p.; format: in vivo, Carworth Farms No. 1 mice; details: for ScMET, number of animals protected / total number of animals tested: mice i.p.
Source text: as §1
This is a model that primarily identifies compounds that raise seizure threshold. With some minor exceptions, the pharmacological profile of the scMET seizure model is consistent with the human condition. The scMET test utilizes a dose of pentylenetetrazol (85 mg/kg in Carworth Farms No. 1 mice and 70 mg/kg in Sprague-Dawley rats) that induces clonic seizures lasting for a period of at least five seconds in 97 % (CD97) of animals tested. At the anticipated time of testing the convulsant is administered subcutaneously. The test compound is administered intraperitoneally in mice and orally in rats. Animals are observed over a 30 minute period. Absence of clonic spasms in the observed time period indicates a compound's ability to abolish the effect of pentylenetetrazol on seizure threshold.
as §2

pentylenetetrazol [3] = experiment: Subcutaneous Metrazol seizure test (scMET), rats p.o.; format: in vivo, Sprague-Dawley rats; details: po, rat
Source text: as §1
This is a model that primarily identifies compounds that raise seizure threshold. With some minor exceptions, the pharmacological profile of the scMET seizure model is consistent with the human condition. […]
For the MES and scMET tests the data is presented in the form of the number of animals protected by the administered compound / total number of animals tested. […] More extensive quantitative data was also obtained for fluoro felbamate 12 in mice (Table 3) and rats (Table 4).

mice = experiment: Toxicity, mice oral; format: in vivo; details: oral administration
Procedure: Toxicity induced by a compound is detected in mice using the standardized rotorod test described by Dunham & Miya (1957). Untreated control mice, when placed on a 6 r.p.m. rotation rod, can maintain their equilibrium for a prolonged period of time.
Toxicity across time doe not occur until dosages of 300mg/kg. […] Quantitative results obtained for fluoro felbamate 12 in mice indicated a MES ED50 of approximately 20 mg/kg with a safety ratio of at least five (see Table 3). Results obtained for oral administration of fluoro felbamate 12 to rats indicated a MES ED50 of about 3 mg/kg with no toxicity at doses up to 500 mg/kg.

seizures = experiment: NINDS standard panel of assays (MES, scMET, toxicity screen), overall; format: in vivo; details: relative to felbamate
Source text: as §1

NC(=O)OCC(F)(COC(N)=O)c1ccccc1 [fluoro felbamate, 2-Fluoro-2-phenyl-1,3-propanediol dicarbamate]
ED50 ([1]; Mus musculus, ip, read-out: MES ED50, mouse, I.P.): ~20 mg/kg
MES, number of animals protected / total number of animals tested ([1]; 3 mg/kg, 0.5h): 0/4
MES, number of animals protected / total number of animals tested ([1]; 3 mg/kg, 4.0h): 0/1
MES, number of animals protected / total number of animals tested ([1]; 10 mg/kg, 0.5h): 0/4
MES, number of animals protected / total number of animals tested ([1]; 10 mg/kg, 4.0h): 1/4
MES, number of animals protected / total number of animals tested ([1]; 30 mg/kg, 0.5h): 1/1
MES, number of animals protected / total number of animals tested ([1]; 30 mg/kg, 4.0h): 1/1
MES, number of animals protected / total number of animals tested ([1]; 100 mg/kg, 0.5h): 3/3
MES, number of animals protected / total number of animals tested ([1]; 100 mg/kg, 4.0h): 3/3
MES, number of animals protected / total number of animals tested ([1]; 300 mg/kg, 0.5h): 1/1
MES, number of animals protected / total number of animals tested ([1]; 300 mg/kg, 4.0h): 1/1
MES ED50 ([1]; mouse, I.P.): 19.96 mg/kg
ED50 (pentylenetetrazol [2]; Mus musculus, ip, read-out: ScMET ED50): > 160 mg/kg
ScMET, number of animals protected / total number of animals tested (pentylenetetrazol [2]; 30 mg/kg, 0.5h): 0/1
ScMET, number of animals protected / total number of animals tested (pentylenetetrazol [2]; 30 mg/kg, 4.0h): 0/1
ScMET, number of animals protected / total number of animals tested (pentylenetetrazol [2]; 100 mg/kg, 0.5h): 0/1
ScMET, number of animals protected / total number of animals tested (pentylenetetrazol [2]; 100 mg/kg, 4.0h): 0/1
ScMET, number of animals protected / total number of animals tested (pentylenetetrazol [2]; 300 mg/kg, 0.5h): 0/1
ScMET, number of animals protected / total number of animals tested (pentylenetetrazol [2]; 300 mg/kg, 4.0h): 0/1
ED50 (pentylenetetrazol [3]): > 250 mg/kg
no toxicity at doses up to (mice): up to 218 mg/kg
times more active than felbamate (seizures): 5-10 times
